Patent publication US5972963A, “3-aryl-2-(1-substituted 4-piperidinyl)-1,1-dioxo-3H-benzo[D]isothiazoles and related compounds” (Hoechst Marion Roussel, Inc., priority 1997, dated 1999)
Counter-ions that a name gives are not always drawn. Like-named read-outs stand apart in the source and are kept apart here.

Assays:
[1] = test system: norepinephrine (NE) uptake, rat whole brain synaptosomes; test: Inhibition of [^3 H]-Norepinephrine Uptake in Rat Whole Brain or Hypothalamic Synaptosomes; assay type: biochemical; conditions: at 3.16 μmn
Experimental: Inhibition of [^3 H]-Norepinephrine Uptake in Rat Whole Brain or Hypothalamic Synaptosomes
This assay is used as a biochemical screen for potential antidepressants which block norepinephrine uptake.
(§1) A. Animals: Male CR Wistar rats (100-125 g).
3. L(-)-Norepinephrine bitartrate is obtained from Sigma Chemical Co. A 0.1 mM stock solution is made up in 0.01 N HCl. This is used to dilute the specific activity of theradiolabeled NE.
4. Levo-[Ring-2,5,6-^3 H]-Norepinephrine (40-50 Ci/mmol) is obtained from New England Nuclear.
The final desired concentration of [^3 H]-NE in the assay is 50 nM. The dilution factor is 0.8. Therefore, the KHBB is made up to contain 62.5 nM [^3 H]-NE.
(§2) 5. For most assays, a 1 mM stock solution of the test compound is made up in a suitable solvent and serially diluted such that the final concentration in the assay ranges from 2×10^-8 to 2×10^-5 M. Seven concentrations are used for each assay. Higher or lower concentrations may be used depending on the potency of the compound.
(§3) Male Wistar rats are decapitated and the brain rapidly removed. Either whole brain minus cerebella or hypothalamus is weighed and homogenized in 9 volumes of ice-cold 0.32 M sucrose using a Potter-Elvejhem homogenizer. Homogenization should be done with 4-5 up and down strokes at medium speeds to minimize synaptosome lysis. TH homogenate is centrifuged at 1000 g for 10 minutes at 0°-4° C. The supernatant (S1) is decanted and is used for uptake experiments.
(§4) 20 μl Vehicle or appropriate drug concentration
Tubes are incubated at 37° C., under a 95% O2 /5% CO2 atmosphere for 5 minutes. For each assay, 3 tubes are incubated with 20 μl of vehicle at 0° C. in a ice bath. After incubation all tubes are immediately centrifuged at 4000 g for 10 minutes. The supernatant fluid is aspirated and the pellets dissolved by adding 1 ml of solubilizaer (Triton X-100+50% EtOH, 1:4 v/v). The tubes are vigorously vortexed, decanted into scientillation vials, and counted in 10 ml of Liquiscint scintillation countering cocktail. Active uptake is the difference between cpm at 37° C. and 0C. The percent inhibition at each drug concentration is the mean of three determinations IC50 values are derived from log-probit analysis.

[2] = test system: serotonin (5HT) uptake, rat whole brain synaptosomes; test: Inhibition of [^3 H]-Serotonin Uptake in Rat Whole Brain Synaptosomes; assay type: biochemical; conditions: at 3.16 μmn
Experimental: Inhibition of [^3 H]-Serotonin Uptake in Rat Whole Brain Synaptosomes
This assay is used a biochemical screen for compounds which block serotonin (5 HT) uptake, which may be useful as antidepressants and for the treatment of personality disorders such as obsessive compulsive disorder.
as §1
3. Serotonin creatinine SO4 is obtained from Sigma Chemical Co. A 0.1 mM stock solution is made up in 0.01 N HCl. This is used to dilute the specific activity of radiolabeled 5 HT.
4. 5-[1,2-^3 H(N)]-Hydroxytryptamine creatinine sulfate (Serotonin), specific activity 20-30 Ci/mmol is obtained from New England Nuclear.
The final desired concentration of ^3 H-5 HT in the assay is 50 nM. The dilution factor is 0.8. Therefore, the KHBB is made up to contain 62.5 nM [^3 H]-5 HT.
as §2, with “mM” for “mM stock”, “in” for “in a”
as §3, with “Whole” for “Either whole”, “cerebella” for “cerebella or hypothalamus”, “The” for “TH”
800 μl KHBB +[^3 H]-5 HT.
as §4
(§5) Tubes are incubated at 37° C. under a 95% O2 /5% CO2 atmosphere for 5 minutes. For each assay, 3 tubes are incubated with 20 μl of vehicle at 0° C. in an ice bath. After incubation all tubes are immediately centrifuged at 4000 g for 10 minutes. The supernatant fluid is aspirated and the pellets dissolved by adding 1 ml of solubilizer (Triton X-100+50% EtOH, 1:4 v/v). The tubes are vigorously vortexed, decanted into scintillation vials, and counted in 10 ml of Liquiscint scintillation counting cocktail. Active uptake is the difference between cpm at 37° C. and 0° C. The percent inhibition at each drug concentration is the mean of three determinations. IC50 values are derived from log-probit analysis.

[3] = test system: dopamine (DA) uptake, rat striatal synaptosomes; test: Inhibition of ^3 H-Dopamine Uptake in Rat Striatal Synaptosomes; assay type: biochemical; conditions: at 3.16 μmn; head: whole brain synaptosomes, protocol: striatal synaptosomes
Experimental: Inhibition of ^3 H-Dopamine Uptake in Rat Striatal Synaptosomes
this assay is used to show differential drug effects on dopamine uptake versus nerepppinephrine uptake and to identify therapeutic agents for diseases where the potentiation of dopaminergic activity may be helpful (e.g. Parkinson's Disease).
as §1
3. Dopamine HCl is obtained from Sigma Chemical Co. A 0.1 mM stock solution is made up in 0.01 N HCl. This is used to dilute the specific activity of radiolabeled 5 HT.
4. 3,4-[8-^3 H(N)]-Dihydroxyphenylethylamine (Dopamine), specific activity 4-34 Ci/mmol is obtained from New England Nuclear.
The final desired concentration of ^3 H-DA in the assay is 50 nM. The dilution factor is 0.9. Therefore, the KHBB is made up to contain 55.5 nM [^3 H]-5 DA.
as §2
as §3, with “Corpora striata are rapidly removed,” for “Either whole brain minus cerebella or hypothalamus is”, “The” for “TH”, “(S)” for “(S1)”
as §4, §5

dopamine (DA) uptake = conditions: cited from earlier work
5 HT uptakes sites = conditions: in vitro receptor binding, literature; cited from earlier work
[4] = test system: norepinephrine (NE) uptake; conditions: literature; cited from earlier work
serotonin (5 HT) uptake = conditions: literature; cited from earlier work

COc1cc(C(C)=O)ccc1OCCCN1CCC(N2C(c3ccc(Cl)cc3)c3ccccc3S2(=O)=O)CC1 (centres unmarked) [1-[4-(3-{4-[3-(4-Chlorophenyl)-1,1-dioxo-3H-benzo[d]isothiazol-2-yl]-1-piperidin-1-yl}-propoxy)-3-methoxyphenyl]-ethanone maleate]
% inhibition NE [1]: 55.23% | % inhibition 5HT [2]: 48.78% | % inhibition DA [3]: 67.94%

C[C@@H](N)Cc1ccccc1 [1-amphetamine]
DA uptake inhibition (dopamine (DA) uptake; literature): no stereo selectivity for the inhibition of DA uptake

O=C(O)/C=C\C(=O)O.O=C1c2ccccc2C(=O)N1CCCN1CCC(N2C(c3ccc(Cl)cc3)c3ccccc3S2(=O)=O)CC1 (centres unmarked) [2-(3-{4-[3-(4-Chlorophenyl)-1,1-dioxo-3H-benzo[d]isothiazol-2-yl]piperidin-1-yl}propyl)-isoindol-1,3-dione maleate]
% inhibition NE [1]: 28.37% | % inhibition 5HT [2]: 29.02% | % inhibition DA [3]: 57.36%

O=C(O)/C=C\C(=O)O.O=S1(=O)c2ccccc2C(c2ccc(Cl)cc2)N1C1CCN(CCO)CC1 (centres unmarked) [2-{4-[3(4-Chlorophenyl)-1,1-dioxo-3H-benzo[d]isothiazol-2-yl]-piperidin-1-yl}-ethanol maleate]
% inhibition NE [1]: 8.71% | % inhibition 5HT [2]: 3.68% | % inhibition DA [3]: 18.71%

Cl.O=S1(=O)c2ccccc2C(c2ccc(F)cc2)N1C1CCNCC1 (centres unmarked) [3-(4-Fluorophenyl)-2-(4-piperidinyl)-2,3-dihydrobenzo[d]isothiazole-1,1-dioxide hydrochloride]
% inhibition NE [1]: 25.02% | % inhibition 5HT [2]: 37.92% | % inhibition DA [3]: 30.34%

CN(C)CCCN1c2ccccc2CCc2ccccc21 [[^3 H]-imipramine]
labelling of 5 HT uptake sites (5 HT uptakes sites): labels 5 HT uptakes sites

CC(NC(C)(C)C)C(=O)c1cccc(Cl)c1 (centres unmarked) [bupropion]
DA uptake inhibition (dopamine (DA) uptake; literature): inhibit DA uptake

COC(=O)[C@H]1[C@@H](OC(=O)c2ccccc2)C[C@@H]2CC[C@H]1N2C [cocaine]
NE uptake inhibition [4]: potently inhibited | DA uptake inhibition (dopamine (DA) uptake; literature): potently inhibited

C[C@H](N)Cc1ccccc1 [d-amphetamine]
DA uptake inhibition (dopamine (DA) uptake; literature): no stereo selectivity for the inhibition of DA uptake

CNCCCN1c2ccccc2CCc2ccccc21 [desipramine]
NE uptake inhibition [4]: more active than the tertiary amines (e.g. imipramine)

C[C@@H]1O[C@@H](O[C@H]2C[C@@H](O)[C@]3(CO)[C@H]4[C@H](O)C[C@]5(C)[C@@H](C6=CC(=O)OC6)CC[C@]5(O)[C@@H]4CC[C@]3(O)C2)[C@H](O)[C@H](O)[C@H]1O [ouabain]
NE uptake inhibition [4]: also inhibited | DA uptake inhibition (dopamine (DA) uptake): potently inhibited

CC(COc1ccccc1)N(CCCl)Cc1ccccc1 (centres unmarked) [phenoxybenzarrine]
NE uptake inhibition [4]: also inhibited

CN(C)C/C=C(/c1ccc(Br)cc1)c1cccnc1 [zimelidine]
5 HT uptake inhibition (serotonin (5 HT) uptake): fairly selective effects on 5 HT uptakes
